# According to patent US6579967B1, “Receptor-selective somatostatin analogs” (The Salk Institute for Biological Studies, priority 1999, dated 2003):
# “Also recorded” adds a separate entry of the source. Like-named read-outs stand apart in the source and are kept apart here.
# Key:
# Format in all cases: binding
# human SSTR2 = biological target: T1, human SSTR2 (Homo sapiens, UniProt P30874); assay: Displacement of 125I-[Leu8,D-Trp22,Tyr25]-somatostatin-28 from cloned SSTR2 (receptor autoradiography on membrane pellets)
# T1 construct: expressed in transfected cells; host or cells: CHO-K1 cells and CCL39 cells
# Method: (§1) Generally, recombinant cells expressing the receptor are washed and homogenized to prepare a crude protein homogenate in a suitable buffer, as known in the art. In a typical assay, an amount of protein from the cell homogenate is placed into a small volume of an appropriate assay buffer at an appropriate pH. Candidate substances, such as potential SRIF agonists and antagonists, are added to the admixture in convenient concentrations, and the interaction between the candidate substance and the receptor polypeptide is monitored.
# (§2) Receptor binding assays are performed on cloned SRIF receptors as generally set forth in Raynor et al. supra. Using such assays, one can generate KD values which are indicative of the concentration of a ligand necessary to occupy one-half (50%) of the binding sites on a selected amount of a receptor or the like, or alternatively, competitive assays can generate IC50 values which are indicative of the concentration of a competitive ligand necessary to displace a saturation concentration of a target ligand being measured from 50% of binding sites.
# (§3) In vitro Bioassay: The various somatostatin analogs are tested in vitro for their ability to bind to isolated cloned receptors expressed on CHO-K1 cells and CCL39 cells. CHO-K1 cells are grown in Ham's F-12 medium, and CCL39 cells are grown in Dulbecco's modified Eagle's medium/Ham's F-12(1:1) mix, supplemented with 10% fetal bovine serum, 100 U/ml penicillin and 100 μg/ml streptomycin, in humidified air containing 5% CO2 at 37° C.
# (§4) Cells are washed twice with and scraped into ice-cold 0.05 M Tris-HCl (pH 7.4), collected by centrifugation, and homogenized using a rotor/stator slash system in the same buffer. After centrifugation at 120 g for 5 min. at 4° C., the supernatant is collected and centrifuged again at 48,000 g for 30 min. at 4° C. The resulting pellet is resuspended in ice-cold Tris buffer, transferred into a microfuge tube, and centrifuged at 20,000 g for 15 min. at 4° C. After withdrawal of the supernatant, the membrane pellet is stored at −80° C.
# (§5) Receptor autoradiography is performed on 20 μm thick cryostat sections of the membrane pellets, mounted on microscope slides, and then stored at −20° C. […] […] Unlabeled somatostatin-28 is run in parallel using the same increasing concentrations, as a control. IC50 values are calculated after quantification of the data using a computer-assisted image processing system as known in this art.
# human SSTR3 = biological target: T2, human SSTR3 (Homo sapiens, UniProt P32745); assay: Displacement of 125I-[Leu8,D-Trp22,Tyr25]-somatostatin-28 from cloned SSTR3 (receptor autoradiography on membrane pellets); conditions: for relative potency at SSTR3 by comparison to SRIF-28: binding affinity relative to SRIF-28 (=1); for binding strength and selectivity for SSTR3, in words: qualitative statement
# T2 construct: expressed in transfected cells; host or cells: CHO-K1 cells and CCL39 cells
# Method: as §1
# as §2, with “sites. The peptide des-AA^1,2,4,5,12,13-[D-Agl^8(Me,2-naphthoyl)]SRIF inhibits the binding to SSTR3 of an iodinated SRIF-28 ligand that has strong affinity for all five receptors.” for “sites.”
# as §3, §4
# (§6) Receptor autoradiography is performed on 20 μm thick cryostat sections of the membrane pellets, mounted on microscope slides, and then stored at −20° C. For each of the tested compounds, complete displacement experiments are performed with the universal somatostatin ligand radioligand ^125I-[Leu^8,D-Trp^22,Tyr^25]-somatostatin-28 that binds with strong affinity to all five receptors. Increasing concentrations of the unlabeled peptide are used ranging from 0.1-1000 nM. Unlabeled somatostatin-28 is run in parallel using the same increasing concentrations, as a control. IC50 values are calculated after quantification of the data using a computer-assisted image processing system as known in this art.
# (§7) The potencies of certain SRIF analogs to inhibit radioligand binding of ^125I-[Leu^8,D-Trp^22,[…]]SRIF-28 to the various cloned SRIF receptors are shown in the following table wherein the IC50 values are given in nanomolar concentration.
# human SSTR5 = biological target: T3, human SSTR5 (Homo sapiens, UniProt P35346); assay: Displacement of 125I-[Leu8,D-Trp22,Tyr25]-somatostatin-28 from cloned SSTR5 (receptor autoradiography on membrane pellets)
# T3 construct: expressed in transfected cells; host or cells: CHO-K1 cells and CCL39 cells
# Method: as §1
# as §2, with “sites. The peptide des-AA^1,2,4,5,12,13-[D-Agl^8(Me,2-naphthoyl)]SRIF inhibits the binding to SSTR3 of an iodinated SRIF-28 ligand that has strong affinity for all five receptors.” for “sites.”
# as §3, §4
# as §6, with “Increasing concentrations of the unlabeled peptide are used ranging from 0.1-1000 nM.” left out
# as §7
# human SSTR4 = biological target: T4, human SSTR4 (Homo sapiens, UniProt P31391); assay: Displacement of 125I-[Leu8,D-Trp22,Tyr25]-somatostatin-28 from cloned SSTR4 (receptor autoradiography on membrane pellets)
# T4 construct: expressed in transfected cells; host or cells: CHO-K1 cells and CCL39 cells
# Method: as §1, §2, §3, §4, §5
# human SSTR1 = biological target: T5, human SSTR1 (Homo sapiens, UniProt P30872); assay: Displacement of 125I-[Leu8,D-Trp22,Tyr25]-somatostatin-28 from cloned SSTR1 (receptor autoradiography on membrane pellets)
# T5 construct: expressed in transfected cells; host or cells: CHO-K1 cells and CCL39 cells
# Method: as §1, §2, §3, §4, §5
# [1] = inhibition of 125I-[Leu8,D-Trp22,Tyr24]SRIF-28 binding, cloned receptor, read-out: IC50 (nM) mSSTR2
# [2] = iodinated SRIF-28 ligand, cloned human receptor, read-out: concentration below which no binding to human SSTR2
# [3] = inhibition of 125I-[Leu8,D-Trp22,Tyr24]SRIF-28 binding, cloned receptor, read-out: IC50 (nM) mSSTR3
# [4] = iodinated SRIF-28 ligand, cloned human receptor, read-out: IC50 at cloned human SSTR3
# [5] = inhibition of 125I-[Leu8,D-Trp22,Tyr24]SRIF-28 binding, cloned receptor, read-out: IC50 (nM) mSSTR5
# [6] = iodinated SRIF-28 ligand, cloned human receptor, read-out: concentration below which no binding to human SSTR5
# [7] = inhibition of 125I-[Leu8,D-Trp22,Tyr24]SRIF-28 binding, cloned receptor, read-out: IC50 (nM) mSSTR4
# [8] = iodinated SRIF-28 ligand, cloned human receptor, read-out: concentration below which no binding to human SSTR4
# [9] = inhibition of 125I-[Leu8,D-Trp22,Tyr24]SRIF-28 binding, cloned receptor, read-out: IC50 (nM) mSSTR1
# [10] = iodinated SRIF-28 ligand, cloned human receptor, read-out: concentration below which no binding to human SSTR1
# T3 sequence (P35346 whole entry): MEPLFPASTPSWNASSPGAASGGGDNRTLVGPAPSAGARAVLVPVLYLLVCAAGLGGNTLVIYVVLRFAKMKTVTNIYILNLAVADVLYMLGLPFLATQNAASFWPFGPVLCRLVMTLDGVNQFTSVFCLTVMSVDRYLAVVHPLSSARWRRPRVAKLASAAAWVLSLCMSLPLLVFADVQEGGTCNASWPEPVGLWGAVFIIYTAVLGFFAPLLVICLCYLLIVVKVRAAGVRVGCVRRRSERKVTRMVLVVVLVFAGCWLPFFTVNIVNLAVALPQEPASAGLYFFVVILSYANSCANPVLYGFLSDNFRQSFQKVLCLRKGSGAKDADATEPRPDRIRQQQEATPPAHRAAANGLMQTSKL
# T5 sequence (P30872 whole entry): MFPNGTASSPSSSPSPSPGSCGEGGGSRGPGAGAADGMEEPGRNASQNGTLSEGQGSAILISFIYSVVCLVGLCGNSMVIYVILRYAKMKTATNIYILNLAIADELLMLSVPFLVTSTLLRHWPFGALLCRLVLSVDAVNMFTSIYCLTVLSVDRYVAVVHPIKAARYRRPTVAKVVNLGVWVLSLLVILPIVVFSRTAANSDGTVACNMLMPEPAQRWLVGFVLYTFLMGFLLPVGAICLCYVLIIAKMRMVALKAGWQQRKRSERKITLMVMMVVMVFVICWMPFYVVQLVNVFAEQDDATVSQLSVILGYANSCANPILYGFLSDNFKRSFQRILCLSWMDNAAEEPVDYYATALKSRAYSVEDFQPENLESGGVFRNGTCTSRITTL
# T1 sequence (P30874 whole entry): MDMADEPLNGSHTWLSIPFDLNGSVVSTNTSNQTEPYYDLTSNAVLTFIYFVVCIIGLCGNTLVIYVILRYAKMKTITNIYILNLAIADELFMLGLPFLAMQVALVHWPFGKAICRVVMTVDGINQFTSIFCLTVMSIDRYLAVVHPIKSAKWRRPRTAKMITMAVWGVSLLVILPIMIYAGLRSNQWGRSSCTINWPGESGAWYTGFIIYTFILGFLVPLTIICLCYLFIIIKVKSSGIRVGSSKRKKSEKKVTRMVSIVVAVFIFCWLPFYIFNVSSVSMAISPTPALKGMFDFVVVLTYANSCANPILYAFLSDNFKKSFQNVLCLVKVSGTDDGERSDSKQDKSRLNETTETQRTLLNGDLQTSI
# T2 sequence (P32745 whole entry): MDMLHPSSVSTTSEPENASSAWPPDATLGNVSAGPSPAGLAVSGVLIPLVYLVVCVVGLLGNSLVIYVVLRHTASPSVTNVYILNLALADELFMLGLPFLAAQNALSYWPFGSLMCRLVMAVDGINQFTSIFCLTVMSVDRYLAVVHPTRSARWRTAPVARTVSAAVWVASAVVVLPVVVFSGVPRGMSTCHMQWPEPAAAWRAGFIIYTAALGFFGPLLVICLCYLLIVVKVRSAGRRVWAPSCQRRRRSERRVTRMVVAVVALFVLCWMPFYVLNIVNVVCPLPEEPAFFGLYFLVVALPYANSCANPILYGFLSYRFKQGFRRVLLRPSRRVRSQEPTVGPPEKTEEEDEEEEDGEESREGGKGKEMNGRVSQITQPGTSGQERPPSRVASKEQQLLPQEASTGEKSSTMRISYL
# T4 sequence (P31391 whole entry): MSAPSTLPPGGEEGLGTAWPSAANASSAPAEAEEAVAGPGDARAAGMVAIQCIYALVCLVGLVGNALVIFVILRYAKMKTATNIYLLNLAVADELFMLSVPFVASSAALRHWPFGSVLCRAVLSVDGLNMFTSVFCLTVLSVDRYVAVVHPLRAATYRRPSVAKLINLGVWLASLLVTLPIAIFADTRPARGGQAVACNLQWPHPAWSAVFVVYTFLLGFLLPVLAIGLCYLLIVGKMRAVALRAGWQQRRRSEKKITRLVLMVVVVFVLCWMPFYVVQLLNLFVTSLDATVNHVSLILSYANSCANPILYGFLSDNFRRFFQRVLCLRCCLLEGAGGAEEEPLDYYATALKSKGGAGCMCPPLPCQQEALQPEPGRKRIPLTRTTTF
Compound,IC50 (human SSTR2; [1]) [nM],relative potency at SSTR3 by comparison to SRIF-28 (human SSTR3),IC50 (human SSTR3; [3]) [nM],IC50 (human SSTR3; [4]) [nM],"binding strength and selectivity for SSTR3, in words (human SSTR3)",IC50 (human SSTR5; [5]) [nM],IC50 (human SSTR4; [7]) [nM],IC50 (human SSTR1; [9]) [nM],also measured
"C[C@@H](O)[C@@H]1NC(=O)[C@H](CCCCN)NC(=O)[C@@H](N(C)C(=O)c2ccc3ccccc3c2)NC(=O)[C@H](Cc2ccccc2)NC(=O)[C@H](Cc2ccccc2)NC(=O)[C@@H](N)CSSC[C@@H](C(=O)O)NC(=O)[C@H](Cc2ccccc2)NC1=O [Peptide No. 2B, (cyclo 3-14)H-Cys-Phe-Phe-D-Agl(Me,2Np)-Lys-Thr-Phe-Cys-OH]",> 10000,about 0.13,70 ± 17,~70,selectively binds to SSTR3,> 10000,> 10000,> 10000,"IC50 (human SSTR2; [2]): > 10000 nM; IC50 at cloned human SSTR3 (human SSTR3; iodinated SRIF-28 ligand, cloned human receptor): about the same as No. 2; binding strength and selectivity for SSTR3, in words (human SSTR3; listed as Peptide 2B): bind strongly and selectively to SSTR3; IC50 (human SSTR5; [6]): > 10000 nM; IC50 (human SSTR4; [8]): > 1000 nM; IC50 (human SSTR1; [10]): > 10000 nM"
"C[C@@H](O)[C@@H]1NC(=O)[C@H](CCCCN)NC(=O)[C@@H](Cc2ccc3ccccc3c2)NC(=O)[C@H](N(C)C(=O)c2ccccc2)NC(=O)[C@H](Cc2ccccc2)NC(=O)[C@@H](N)CSSC[C@@H](C(=O)O)NC(=O)[C@H](Cc2ccccc2)NC1=O [Peptide No. 3, (cyclo 3-14)H-Cys-Phe-Agl(Me,Bz)-D-2Nal-Lys-Thr-Phe-Cys-OH]",> 1000,–,80,~80,bind selectively to SSTR3; also recorded: selectively binds SSTR3,> 1000,> 1000,> 10000,IC50 (human SSTR2; [2]): > 1000 nM; IC50 (human SSTR5; [6]): > 1000 nM; IC50 (human SSTR4; [8]): > 1000 nM; IC50 (human SSTR1; [10]): > 1000 nM
"(cyclo 3-14)H-Cys-Lys-Asn-Phe-Tyr-D-Agl(Me,2Np)-Lys-Thr-Phe-Thr-Ser-Cys-OH [Peptide No. 2G]",–,–,–,–,binds selectively to SSTR3 but has fairly low affinity for all five SRIF receptors,–,–,–,–
"C[C@@H](O)[C@@H]1NC(=O)[C@H](CCCCN)NC(=O)[C@@H](N(C)C(=O)c2ccc3ccccc3c2)NC(=O)[C@H](Cc2ccc(Cl)cc2)NC(=O)[C@H](Cc2ccccc2)NC(=O)[C@@H](N)CSSC[C@@H](C(=O)O)NC(=O)[C@H](Cc2ccccc2)NC1=O [Peptide No. 2C, (cyclo 3-14)H-Cys-Phe-4ClPhe-D-Agl(Me,2Np)-Lys-Thr-Phe-Cys-OH]",> 1000,–,300,–,–,> 10000,> 10000,> 1000,"binding strength and selectivity for SSTR3, in words (human SSTR3; listed as Peptide 2C): bind strongly and selectively to SSTR3; also recorded: slightly less selective"
"C[C@@H](O)[C@@H]1NC(=O)[C@H](CCCCN)NC(=O)[C@@H](N(C)C(=O)c2ccc3ccccc3c2)NC(=O)[C@H](Cc2ccc(O)cc2)NC(=O)[C@H](Cc2ccccc2)NC(=O)[C@@H](N)CSSC[C@@H](C(=O)O)NC(=O)[C@H](Cc2ccccc2)NC1=O [Peptide No. 2, (cyclo)H-Cys-Phe-Tyr-D-Agl(Me,2Np)-Lys-Thr-Phe-Cys-OH]",> 10000,about 0.13,70 ± 18,~70,selectively bound to SSTR3,> 10000,> 1000,> 10000,"effect on binding of the SRIF-28 radioligand to human SSTR2 (human SSTR2; peptide at 100 nM): minimal effects; binding strength and selectivity for SSTR3, in words (human SSTR3; listed as Peptide 2): bind strongly and selectively to SSTR3; effect on binding of the SRIF-28 radioligand to human SSTR5 (human SSTR5; peptide at 100 nM): minimal effects; effect on binding of the SRIF-28 radioligand to human SSTR4 (human SSTR4; peptide at 100 nM): minimal effects; effect on binding of the SRIF-28 radioligand to human SSTR1 (human SSTR1; peptide at 100 nM): minimal effects"

# Further lines, with some results ahead:
IC50 (human SSTR2; [1]) [nM],relative potency at SSTR3 by comparison to SRIF-28 (human SSTR3),IC50 (human SSTR3; [3]) [nM],IC50 (human SSTR3; [4]) [nM],"binding strength and selectivity for SSTR3, in words (human SSTR3)",IC50 (human SSTR5; [5]) [nM],IC50 (human SSTR4; [7]) [nM],IC50 (human SSTR1; [9]) [nM],Compound,also measured
–,–,–,–,bind strongly and selectively to SSTR3,–,–,–,"(cyclo 3-14)Cbm-D-Cys-Phe-Tyr-D-Agl(Me,2Np)-Lys-Thr-Aph(Ac)-Cys-OH [Peptide No. 2M]",–
> 10000,about 0.08,115 ± 36,–,–,> 1000,> 10000,> 10000,"C[C@@H](O)[C@@H]1NC(=O)[C@H](CCCCN)NC(=O)[C@@H](N(C)C(=O)c2ccc3ccccc3c2)NC(=O)[C@H](Cc2ccccc2)NC(=O)[C@H](Cc2ccccc2)NC(=O)[C@H](N)CSSC[C@@H](C(=O)O)NC(=O)[C@H](Cc2ccccc2)NC1=O [Peptide No. 2D, (cyclo 3-14)H-D-Cys-Phe-Phe-D-Agl(Me,2Np)-Lys-Thr-Phe-Cys-OH]","binding strength and selectivity for SSTR3, in words (human SSTR3; listed as Peptide 2D): bind strongly and selectively to SSTR3; also recorded: slightly less selective"
